Values joined by “and” are separate entries in the source; they are usually repeats but may differ in a detail not shown here. Equal values may be shown once. Inconclusive results and toxic doses are left out.
System: L1210 leukemia ip in BDF1 mice, survival T/C
Experiment: NCI In Vivo Anticancer Drug Screen. Data for tumor model L1210 Leukemia (intraperitoneal) in B6D2F1 (BDF1) mice
Settings: endpoint: mean survival time, higher = longer survival
In short: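 Antitumor effect is assessed in tumor-bearing animals. Survival in the compound arm is compared with a vehicle-dosed control arm and expressed as their quotient.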

[1] = dose: 100.0 mg/kg/injection, schedule: Q01DX009 (ip), vehicle: Klucel (hydroxypropylcellulose) (HPC)
[2] = dose: 100.0 mg/kg/injection, schedule: Q04DX003 (ip), vehicle: Klucel (hydroxypropylcellulose) (HPC)
[3] = dose: 200.0 mg/kg/injection, schedule: Q01DX009 (ip), vehicle: Klucel (hydroxypropylcellulose) (HPC)
[4] = dose: 200.0 mg/kg/injection, schedule: Q04DX003 (ip), vehicle: Klucel (hydroxypropylcellulose) (HPC)
[5] = dose: 100.0 mg/kg/injection, schedule: Q01DX009 (ip), vehicle: saline with Tween-80
[6] = dose: 200.0 mg/kg/injection, schedule: Q01DX009 (ip), vehicle: saline with Tween-80
[7] = dose: 400.0 mg/kg/injection, schedule: Q01DX009 (ip), vehicle: saline with Tween-80
[8] = dose: 100.0 mg/kg/injection, schedule: Q04DX003 (ip), vehicle: saline with Tween-80
[9] = dose: 200.0 mg/kg/injection, schedule: Q04DX003 (ip), vehicle: saline with Tween-80
[10] = dose: 400.0 mg/kg/injection, schedule: Q04DX003 (ip), vehicle: saline with Tween-80
[11] = dose: 400.0 mg/kg/injection, schedule: Q04DX003 (ip), vehicle: Klucel (hydroxypropylcellulose) (HPC)
[12] = dose: 100.0 mg/kg/injection, schedule: Q04DX003 (ip), vehicle: saline
[13] = dose: 25.0 mg/kg/injection, schedule: Q01DX009 (ip), vehicle: saline
[14] = dose: 25.0 mg/kg/injection, schedule: Q04DX003 (ip), vehicle: saline
[15] = dose: 100.0 mg/kg/injection, schedule: Q01DX001 (ip), vehicle: carboxymethylcellulose (CMC)
[16] = dose: 200.0 mg/kg/injection, schedule: Q01DX001 (ip), vehicle: carboxymethylcellulose (CMC)
[17] = dose: 400.0 mg/kg/injection, schedule: Q01DX001 (ip), vehicle: carboxymethylcellulose (CMC)
[18] = dose: 100.0 mg/kg/injection, schedule: Q04DX002 (ip), vehicle: saline with Tween-80
[19] = dose: 200.0 mg/kg/injection, schedule: Q04DX002 (ip), vehicle: saline with Tween-80
[20] = dose: 400.0 mg/kg/injection, schedule: Q04DX002 (ip), vehicle: saline with Tween-80

SMILES: CC(=O)c1ccc(NCC2N=C(N)N=C(N)N2c2ccccc2)cc1 (stereo not given)
- T/C [1]: 97 % of control
- T/C [2]: 98 % of control
- T/C [3]: 96 % of control
- T/C [4]: 90 % of control

SMILES: COc1ccc(NC(=S)N(C)C)cc1
- T/C [5]: 98 % of control
- T/C [6]: 110 % of control
- T/C [7]: 98 % of control

SMILES: CC1CN(c2ccncc2N)CCN1c1ccc(Cl)cc1 (stereo not given)
- T/C [8]: 110 % of control
- T/C [9]: 105 % of control
- T/C [10]: 105 % of control

SMILES: COc1ccc(C(=S)N(CC(C)C)c2ccccc2)cc1
- T/C [2]: 94 % of control
- T/C [4]: 95 % of control
- T/C [11]: 94 % of control

SMILES: Cc1ccc(C)c(NC(=O)Oc2ccccc2F)c1
- T/C [1]: 101 % of control
- T/C [2]: 98 % of control
- T/C [3]: 91 % of control
- T/C [4]: 113 % of control
- T/C [11]: 101 % of control

SMILES: CC1(C)OC2COC(CN(N=O)C(N)=O)C2O1 (stereo not given)
- T/C (dose: 75.0 mg/kg/injection, schedule: Q01DX001 (ip), vehicle: saline): 122 % of control

SMILES: CNCCN(C)CCN(C)Cc1ccc(OC)cc1
- T/C (dose: 25.0 mg/kg/injection, schedule: Q01DX009 (ip), vehicle: water): 105 % of control
- T/C (dose: 50.0 mg/kg/injection, schedule: Q01DX009 (ip), vehicle: water): 102 % of control
- T/C (dose: 100.0 mg/kg/injection, schedule: Q01DX009 (ip), vehicle: water): 100 % of control
- T/C (dose: 200.0 mg/kg/injection, schedule: Q01DX009 (ip), vehicle: water): 107 % of control

SMILES: Fc1ccc(/C=N\N=C(N/N=C/c2ccc(F)cc2)N/N=C/c2ccc(F)cc2)cc1
- T/C (dose: 12.5 mg/kg/injection, schedule: Q04DX003 (ip), vehicle: saline with Tween-80): 101 % of control
- T/C (dose: 15.0 mg/kg/injection, schedule: Q01DX Z (ip), vehicle: carboxymethylcellulose (CMC)): 97 % of control
- T/C (dose: 25.0 mg/kg/injection, schedule: Q04DX003 (ip), vehicle: saline with Tween-80): 101 % of control
- T/C (dose: 30.0 mg/kg/injection, schedule: Q01DX Z (ip), vehicle: carboxymethylcellulose (CMC)): 97 % of control
- T/C (dose: 30.0 mg/kg/injection, schedule: Q01DX Z (oral), vehicle: carboxymethylcellulose (CMC)): 100 % of control
- T/C (dose: 50.0 mg/kg/injection, schedule: Q04DX003 (ip), vehicle: saline with Tween-80): 104 % of control
- T/C (dose: 60.0 mg/kg/injection, schedule: Q01DX Z (ip), vehicle: carboxymethylcellulose (CMC)): 101 % of control
- T/C (dose: 60.0 mg/kg/injection, schedule: Q01DX Z (oral), vehicle: carboxymethylcellulose (CMC)): 93 % of control and 100 % of control
- T/C [2]: 90 % of control
- T/C (dose: 120.0 mg/kg/injection, schedule: Q01DX Z (ip), vehicle: carboxymethylcellulose (CMC)): 89 % of control
- T/C (dose: 120.0 mg/kg/injection, schedule: Q01DX Z (oral), vehicle: carboxymethylcellulose (CMC)): 98 % of control and 100 % of control
- T/C [4]: 100 % of control
- T/C (dose: 240.0 mg/kg/injection, schedule: Q01DX Z (oral), vehicle: carboxymethylcellulose (CMC)): 102 % of control and 105 % of control
- T/C [11]: 87 % of control

SMILES: COc1ccc(-c2nnc(-c3ccc(OC)c(Cl)c3)nn2)cc1Cl
- T/C [5]: 86 % of control
- T/C [6]: 86 % of control

SMILES: NC(c1ccccc1)c1ccccc1
- T/C [12]: 104 % of control
- T/C (dose: 200.0 mg/kg/injection, schedule: Q04DX003 (ip), vehicle: saline): 95 % of control

SMILES: CSc1ncc2n1C=CN(C(=O)c1ccc([N+](=O)[O-])cc1)C2O (stereo not given)
- T/C [13]: 89 % of control
- T/C [14]: 106 % of control
- T/C (dose: 50.0 mg/kg/injection, schedule: Q01DX009 (ip), vehicle: saline): 89 % of control
- T/C (dose: 50.0 mg/kg/injection, schedule: Q04DX003 (ip), vehicle: saline): 111 % of control
- T/C [12]: 102 % of control

SMILES: CC(=O)N1Cc2nc(N)nc(N)c2C1
- T/C [15]: 95 % of control
- T/C [16]: 104 % of control
- T/C [17]: 104 % of control

SMILES: CCC[CH2][Sn](=[O])[OH]
- T/C [18]: 91 % of control
- T/C [19]: 91 % of control
- T/C [20]: 94 % of control

SMILES: CCOC(=O)c1ccc(NC(=O)c2ccc(Cl)c(Cl)c2)cc1
- T/C (dose: 100.0 mg/kg/injection, schedule: Q01DX001 (ip), vehicle: saline with Tween-80): 112 % of control
- T/C [5]: 97 % of control
- T/C [18]: 97 % of control and 91 % of control
- T/C [8]: 104 % of control
- T/C (dose: 200.0 mg/kg/injection, schedule: Q01DX001 (ip), vehicle: saline with Tween-80): 115 % of control
- T/C [6]: 93 % of control and 101 % of control
- T/C [19]: 93 % of control and 87 % of control
- T/C [9]: 108 % of control
- T/C (dose: 400.0 mg/kg/injection, schedule: Q01DX001 (ip), vehicle: saline with Tween-80): 93 % of control
- T/C [7]: 103 % of control and 114 % of control
- T/C [20]: 93 % of control and 92 % of control
- T/C [10]: 97 % of control

SMILES: O=C1NC(=O)C(c2ccccc2)(C2CCC2)N1 (stereo not given)
- T/C [5]: 93 % of control
- T/C [6]: 103 % of control
- T/C [7]: 95 % of control

SMILES: CCCCCCCCCCCCNc1c(OCC)c(=O)c1=O
- T/C [2]: 88 % of control
- T/C [4]: 91 % of control
- T/C [11]: 93 % of control

SMILES: CC(=O)Nc1c(Cl)c(Cl)c(Cl)c2c1-c1ccc(Cl)cc1C2
- T/C [15]: 92 % of control
- T/C [16]: 101 % of control
- T/C [17]: 97 % of control

SMILES: CCOC(=O)Nc1cc(NC(c2ccc(Cl)cc2)c2ccc(Cl)cc2)c2[nH]cnc2n1
- T/C (dose: 25.0 mg/kg/injection, schedule: Q01DX009 (ip), vehicle: other): 96 % of control
- T/C (dose: 50.0 mg/kg/injection, schedule: Q01DX009 (ip), vehicle: other): 111 % of control

SMILES: O=C(O)C1CCC2CCCCC2[N-]1.O=C(O)C1CCC2CCCCC2[N-]1.[Cu+2] (stereo not given)
- T/C (dose: 6.25 mg/kg/injection, schedule: Q01DX009 (ip), vehicle: saline): 97 % of control
- T/C (dose: 6.25 mg/kg/injection, schedule: Q04DX003 (ip), vehicle: saline): 105 % of control
- T/C (dose: 12.5 mg/kg/injection, schedule: Q01DX009 (ip), vehicle: saline): 90 % of control
- T/C (dose: 12.5 mg/kg/injection, schedule: Q04DX003 (ip), vehicle: saline): 100 % of control
- T/C [13]: 97 % of control
- T/C [14]: 94 % of control

SMILES: CC12CCC(C(=N/O)/C1=N\O)C2(C)C (stereo not given)
- T/C (dose: 20.0 mg/kg/injection, schedule: Q04DX003 (ip), vehicle: Klucel (hydroxypropylcellulose) (HPC)): 106 % of control
- T/C (dose: 25.0 mg/kg/injection, schedule: Q01DX009 (ip), vehicle: Klucel (hydroxypropylcellulose) (HPC)): 107 % of control
- T/C (dose: 40.0 mg/kg/injection, schedule: Q04DX003 (ip), vehicle: Klucel (hydroxypropylcellulose) (HPC)): 103 % of control
- T/C (dose: 50.0 mg/kg/injection, schedule: Q01DX009 (ip), vehicle: Klucel (hydroxypropylcellulose) (HPC)): 107 % of control
- T/C (dose: 80.0 mg/kg/injection, schedule: Q04DX003 (ip), vehicle: Klucel (hydroxypropylcellulose) (HPC)): 105 % of control
- T/C [2]: 96 % of control

SMILES: OCC1OC(n2cnc3cncnc32)C(O)C1O (stereo not given)
- T/C (dose: 1.9 mg/kg/injection, schedule: Q01DX015 (ip), vehicle: saline): 108 % of control
- T/C (dose: 2.5 mg/kg/injection, schedule: Q01DX015 (ip), vehicle: saline): 104 % of control
- T/C (dose: 2.8 mg/kg/injection, schedule: Q01DX015 (ip), vehicle: saline): 151 % of control
- T/C (dose: 4.3 mg/kg/injection, schedule: Q01DX015 (ip), vehicle: saline): 110 % of control
- T/C (dose: 5.0 mg/kg/injection, schedule: Q01DX015 (ip), vehicle: saline): 106 % of control
- T/C (dose: 6.5 mg/kg/injection, schedule: Q01DX015 (ip), vehicle: saline): 108 % of control
- T/C (dose: 9.7 mg/kg/injection, schedule: Q01DX015 (ip), vehicle: saline): 112 % of control
- T/C (dose: 10.0 mg/kg/injection, schedule: Q01DX015 (ip), vehicle: saline): 118 % of control
- T/C (dose: 20.0 mg/kg/injection, schedule: Q01DX015 (ip), vehicle: saline): 93 % of control
- T/C (dose: 50.0 mg/kg/injection, schedule: Q01DX001 (ip), vehicle: saline): 117 % of control and 122 % of control
- T/C (dose: 100.0 mg/kg/injection, schedule: Q01DX001 (ip), vehicle: saline): 123 % of control

SMILES: N=c1c2cnn(C3OC(CO)C(O)C3O)c2ncn1N (stereo not given)
- T/C (dose: 6.25 mg/kg/injection, schedule: Q01DX009 (ip), vehicle: water): 112 % of control
- T/C (dose: 12.5 mg/kg/injection, schedule: Q01DX009 (ip), vehicle: water): 121 % of control
